One may read the IC50 as the concentration that inhibits the measured activity by half. For orientation: ED50 means the dose that gives a 50% effect, or the effect in half of the subjects.

Results on one compound are retold here after US5783586A, “Heteroarylmethoxyphenylthioalkyl carboxylates as inhibitors of leukotriene biosynthesis” (Abbott Laboratories, priority 1996, dated 1998).

The subject of test [1] is leukotriene biosynthesis (LTB4) in human polymorphornuclear leukocytes (PMNL). The experiment in a line: calcium ionophore-induced LTB4 in human PMNL (leukotriene biosynthesis inhibition in vitro). The format is cell-based. The settings on record: calcium ionophore 8.3 μM, 15 min preincubation, LTB4 measured. Here is the method: Lipoxygenase Inhibition Determination in vitro
Inhibition of leukotriene biosynthesis was evaluated in vitro using an assay involving calcium ionophore-induced LTB4 expressed in human polymorphornuclear leukocytes (PMNL). Human PMNL isolated from heparinized (20 USP units/mL) venous blood (25 mL) obtained from healthy volunteers was layered over an equal volume of Ficoll-Hypaque Mono-Poly Resolving Medium (ICN Flow, Costa Mesa, Calif.) and centrifugated at 400 × g for 40 minutes at 20° C. The PMNL was collected, erythrocytes lysed and washed 2× and suspended at 1.0×10^7 cells/ml in Earle's balanced salt solution with 17 mM Earle's HEPES. Aliquots of the cell suspension were preincubated with test compounds dissolved in DMSO (final concentration <2%) for 15 minutes and stimulated with calcium ionophore (final concentration 8.3 μM) for 10 minutes at 37° C. Incubations were stopped with the addition of two volumes of ice-cold methanol followed by centrifuging the cell suspensions at 4° C. for 10 minutes at 450 × g. The amount of LTB4 in the methanol extract was analyzed by enzyme-linked immunoassay or by HPLC analysis.

Test [2] deals with leukotriene biosynthesis. Briefly: Ionophore A23187-Induced Rat Pleural Inflammation Model (leukotriene biosynthesis inhibition in vivo). As to conditions: 1 h, male rats, dosed in 0.2% methocel one hour prior to intrapleural A23187, eicosanoids in pleural lavage. How it is done: Lipoxygenase Inhibition Determination in vivo
Inhibition of leukotriene biosynthesis in vivo was evaluated using the lonophore A32187-Induced Rat Plueral Inflammation Model. Pleural inflammation was induced in male rats following the method of Rao, et al (Rao, T. S., Currie, J. L., Shaffer, A. F., Isakson, P. C., (1993) Evaluation of 5-lipoxygenase Inhibitors, Zileuton, A-78773 and ICI D-2138 in an Ionophore (A-23187) Induced Pleural Inflammation Model in the Rat, Life Sciences, 53: 147 (1993)). Rats were dosed with experimental compounds in 0.2% methocel one hour prior to the intrapleural injection of the calcium ionophore, A23187. The rats where lightly anesthetized with Pentrane (Abbott Laboratories) and injected intrapleurally with 0.5 ml of 2% ethanol in injectable saline (Abbott Laboratories) containing 20 μg of A23187 (Cal BioChem-Novabiochem). Thirty minutes later the animals were euthanised and the pleural cavities lavaged with ice cold saline (Abbott Laboratories). The lavage fluid was then added to ice cold methanol (final methanol concentration 30%) to lyse cells and precipitate protein. Eicosanoids were determined by enzyme immunoassay by standard methods.

In the case of `CC(SCC(=O)O)(c1ccc(OCc2ccc3ccccc3n2)cc1)c1ccc(OCc2ccc3ccccc3n2)cc1` [Example 1, 1,1-bis(4-(2-quinolylmethoxy)phenyl)eth-1-ylthioacetic acid], the IC50 in test [1] amounted to 230 nM. In test [2], this compound came in with an ED50 of 1.1 mg/kg.
